In BindingDB's records for doi:10.1021/jm501636x (University of Massachusetts Medical School, 2015):

Assay: Inhibition of PAD4 in C57BL/6 mouse bone marrow neutrophils assessed as inhibition of PMA-stimulated neutrophil extracellular trap formation preincubated for 30 mins followed by PMA stimulation measured after 3 to 4 hrs by DNA/neutrophil elastase overlap assay

- EC50: 20 µM
Structure (SMILES): CC(C)(C)n1nnc([C@H](CCCNC(=N)CCl)NC(=O)c2ccc(-c3ccccc3)cc2)n1
